Data published in the supplement of paper PMC10307832.

Experiments:
Test in all cases: relative viability (nuclei count vs DMSO), 5 days (fraction); higher = more cells survive
Trametinib + Phenformin = compound: CC(=O)Nc1cccc(-n2c(=O)n(C3CC3)c(=O)c3c(Nc4ccc(I)cc4F)n(C)c(=O)c(C)c32)c1 [Trametinib] + N=C(N)NC(=N)NCCc1ccccc1 [Phenformin] (partner 250 µM)
In short: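 Relative viability divides the nuclei count in treated wells by that in vehicle wells. Lung cancer cell lines were seeded in 1536-well plates, dosed by pin tool the next day, and fixed and stained after 5 days in one step with final 0.05% Triton X-100, 1% formaldehyde and 1 ug/ml Hoechst. Dosing was a single drug or a fixed anchor-drug dose plus five library-drug doses (not always all listed) in √10 steps, and values are medians of duplicate plates imaged at 4×.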

[1] = compound: CN1C=C(C2=CC=CC=C21)/C=C\3/C4=C(C=CC=N4)NC3=O
In short: (§1)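 After an overnight hold at 37 °C, lung cancer cell lines in 1536-well plates were pinned with five library-drug doses (not always all listed), each √10 from the next, on vehicle-anchored plates. The cells stayed 5 days without fresh medium, then a one-step fix, permeabilisation and Hoechst stain preceded 4× imaging and MetaXpress nuclear counts. A plate passed only with control CV under 25% and at least one doubling. Viability is the median, over plates, of treated-well nuclei relative to vehicle-well nuclei.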

Trametinib = compound: CC(=O)Nc1cccc(-n2c(=O)n(C3CC3)c(=O)c3c(Nc4ccc(I)cc4F)n(C)c(=O)c(C)c32)c1 [Trametinib]
In short: as §1

## EMC-BAC-2
Trametinib + Phenformin; first compound 0.0025 µM
  relative viability: 0.582
Trametinib + Phenformin; first compound 0.007906 µM
  relative viability: 0.565
Trametinib + Phenformin; first compound 0.025 µM
  relative viability: 0.443
Trametinib + Phenformin; first compound 0.07906 µM
  relative viability: 0.475
Trametinib + Phenformin; first compound 0.25 µM
  relative viability: 0.31
[1]; 0.02 µM
  relative viability: 1.1
[1]; 0.06325 µM
  relative viability: 0.92
[1]; 0.2 µM
  relative viability: 0.89
[1]; 0.6325 µM
  relative viability: 0.798
[1]; 2 µM
  relative viability: 0.673
Trametinib; 0.0025 µM
  relative viability: 1.2
Trametinib; 0.007906 µM
  relative viability: 1.01
Trametinib; 0.02 µM, anchor plate
  relative viability: 0.859
Trametinib; 0.025 µM
  relative viability: 0.775
Trametinib; 0.07906 µM
  relative viability: 0.61
Trametinib; 0.25 µM
  relative viability: 0.635

## NCI-H1944
Trametinib + Phenformin; first compound 0.0025 µM
  relative viability: 0.187
Trametinib + Phenformin; first compound 0.007906 µM
  relative viability: 0.159
Trametinib + Phenformin; first compound 0.025 µM
  relative viability: 0.152
Trametinib + Phenformin; first compound 0.07906 µM
  relative viability: 0.148
Trametinib + Phenformin; first compound 0.25 µM
  relative viability: 0.137
[1]; 0.02 µM
  relative viability: 0.903
[1]; 0.06325 µM
  relative viability: 0.948
[1]; 0.6325 µM
  relative viability: 0.989
[1]; 2 µM
  relative viability: 0.936
Trametinib; 0.0025 µM
  relative viability: 0.989
Trametinib; 0.007906 µM
  relative viability: 0.672
Trametinib; 0.02 µM, anchor plate
  relative viability: 0.427
Trametinib; 0.025 µM
  relative viability: 0.558
Trametinib; 0.07906 µM
  relative viability: 0.487
Trametinib; 0.25 µM
  relative viability: 0.363

## A-427
Trametinib + Phenformin; first compound 0.0025 µM
  relative viability: 0.234
Trametinib + Phenformin; first compound 0.007906 µM
  relative viability: 0.286
Trametinib + Phenformin; first compound 0.025 µM
  relative viability: 0.22
Trametinib + Phenformin; first compound 0.07906 µM
  relative viability: 0.207
Trametinib + Phenformin; first compound 0.25 µM
  relative viability: 0.137
[1]; 0.02 µM
  relative viability: 1.06
[1]; 0.06325 µM
  relative viability: 0.955
[1]; 0.6325 µM
  relative viability: 1.04
[1]; 2 µM
  relative viability: 1.03
Trametinib; 0.0025 µM
  relative viability: 1.04
Trametinib; 0.007906 µM
  relative viability: 0.96
Trametinib; 0.02 µM, anchor plate
  relative viability: 0.77
Trametinib; 0.025 µM
  relative viability: 0.66
Trametinib; 0.07906 µM
  relative viability: 0.68
Trametinib; 0.25 µM
  relative viability: 0.35

## NCI-H520
Trametinib + Phenformin; first compound 0.0025 µM
  relative viability: 0.543
Trametinib + Phenformin; first compound 0.007906 µM
  relative viability: 0.666
Trametinib + Phenformin; first compound 0.025 µM
  relative viability: 0.392
Trametinib + Phenformin; first compound 0.07906 µM
  relative viability: 0.608
Trametinib + Phenformin; first compound 0.25 µM
  relative viability: 0.199
[1]; 0.02 µM
  relative viability: 0.967
[1]; 0.06325 µM
  relative viability: 0.895
[1]; 0.2 µM
  relative viability: 1.03
[1]; 0.6325 µM
  relative viability: 0.952
[1]; 2 µM
  relative viability: 0.965
Trametinib; 0.0025 µM
  relative viability: 0.86
Trametinib; 0.007906 µM
  relative viability: 1.06
Trametinib; 0.02 µM, anchor plate
  relative viability: 0.735
Trametinib; 0.025 µM
  relative viability: 0.924
Trametinib; 0.07906 µM
  relative viability: 0.949
Trametinib; 0.25 µM
  relative viability: 0.623

## NCI-H650
Trametinib + Phenformin; first compound 0.0025 µM
  relative viability: 0.532
Trametinib + Phenformin; first compound 0.007906 µM
  relative viability: 0.52
Trametinib + Phenformin; first compound 0.025 µM
  relative viability: 0.501
Trametinib + Phenformin; first compound 0.07906 µM
  relative viability: 0.426
Trametinib + Phenformin; first compound 0.25 µM
  relative viability: 0.403
[1]; 0.02 µM
  relative viability: 0.968
[1]; 0.06325 µM
  relative viability: 0.915
[1]; 0.6325 µM
  relative viability: 0.84
[1]; 2 µM
  relative viability: 0.846
Trametinib; 0.0025 µM
  relative viability: 1.1
Trametinib; 0.007906 µM
  relative viability: 1.24
Trametinib; 0.02 µM, anchor plate
  relative viability: 0.98
Trametinib; 0.025 µM
  relative viability: 1.08
Trametinib; 0.07906 µM
  relative viability: 0.957
Trametinib; 0.25 µM
  relative viability: 0.623

## COR-L 105
Trametinib + Phenformin; first compound 0.0025 µM
  relative viability: 0.421
Trametinib + Phenformin; first compound 0.007906 µM
  relative viability: 0.354
Trametinib + Phenformin; first compound 0.025 µM
  relative viability: 0.293
Trametinib + Phenformin; first compound 0.07906 µM
  relative viability: 0.277
Trametinib + Phenformin; first compound 0.25 µM
  relative viability: 0.213
[1]; 0.02 µM
  relative viability: 0.803
[1]; 0.06325 µM
  relative viability: 0.838
[1]; 0.2 µM
  relative viability: 0.837
[1]; 0.6325 µM
  relative viability: 1.05
[1]; 2 µM
  relative viability: 1.02
Trametinib; 0.0025 µM
  relative viability: 0.835
Trametinib; 0.007906 µM
  relative viability: 0.786
Trametinib; 0.02 µM, anchor plate
  relative viability: 0.446
Trametinib; 0.025 µM
  relative viability: 0.426
Trametinib; 0.07906 µM
  relative viability: 0.386
Trametinib; 0.25 µM
  relative viability: 0.426

## NCI-H1755
Trametinib + Phenformin; first compound 0.0025 µM
  relative viability: 0.593
Trametinib + Phenformin; first compound 0.007906 µM
  relative viability: 0.587
Trametinib + Phenformin; first compound 0.025 µM
  relative viability: 0.608
Trametinib + Phenformin; first compound 0.07906 µM
  relative viability: 0.594
Trametinib + Phenformin; first compound 0.25 µM
  relative viability: 0.512
[1]; 0.02 µM
  relative viability: 0.968
[1]; 0.06325 µM
  relative viability: 0.991
[1]; 0.2 µM
  relative viability: 1.05
[1]; 0.6325 µM
  relative viability: 0.914
[1]; 2 µM
  relative viability: 0.891
Trametinib; 0.0025 µM
  relative viability: 0.886
Trametinib; 0.007906 µM
  relative viability: 0.879
Trametinib; 0.02 µM, anchor plate
  relative viability: 0.773
Trametinib; 0.025 µM
  relative viability: 0.83
Trametinib; 0.07906 µM
  relative viability: 0.885
Trametinib; 0.25 µM
  relative viability: 0.842

## NCI-H2085
Trametinib + Phenformin; first compound 0.0025 µM
  relative viability: 0.588
Trametinib + Phenformin; first compound 0.007906 µM
  relative viability: 0.509
Trametinib + Phenformin; first compound 0.025 µM
  relative viability: 0.332
Trametinib + Phenformin; first compound 0.07906 µM
  relative viability: 0.464
Trametinib + Phenformin; first compound 0.25 µM
  relative viability: 0.25
[1]; 0.02 µM
  relative viability: 1.01
[1]; 0.06325 µM
  relative viability: 0.943
[1]; 0.2 µM
  relative viability: 0.942
[1]; 0.6325 µM
  relative viability: 1.03
[1]; 2 µM
  relative viability: 0.993
Trametinib; 0.0025 µM
  relative viability: 0.913
Trametinib; 0.007906 µM
  relative viability: 0.823
Trametinib; 0.02 µM, anchor plate
  relative viability: 0.504
Trametinib; 0.025 µM
  relative viability: 0.754
Trametinib; 0.07906 µM
  relative viability: 0.783
Trametinib; 0.25 µM
  relative viability: 0.729

## NCI-H2023
Trametinib + Phenformin; first compound 0.0025 µM
  relative viability: 0.34
Trametinib + Phenformin; first compound 0.007906 µM
  relative viability: 0.393
Trametinib + Phenformin; first compound 0.025 µM
  relative viability: 0.349
Trametinib + Phenformin; first compound 0.07906 µM
  relative viability: 0.289
Trametinib + Phenformin; first compound 0.25 µM
  relative viability: 0.167
[1]; 0.02 µM
  relative viability: 1.01
[1]; 0.06325 µM
  relative viability: 0.962
[1]; 0.2 µM
  relative viability: 0.768
[1]; 0.6325 µM
  relative viability: 0.945
[1]; 2 µM
  relative viability: 0.898
Trametinib; 0.0025 µM
  relative viability: 0.964
Trametinib; 0.007906 µM
  relative viability: 0.765
Trametinib; 0.02 µM, anchor plate
  relative viability: 0.611
Trametinib; 0.025 µM
  relative viability: 0.655
Trametinib; 0.07906 µM
  relative viability: 0.632
Trametinib; 0.25 µM
  relative viability: 0.334

## HOP-62
Trametinib + Phenformin; first compound 0.0025 µM
  relative viability: 0.692
Trametinib + Phenformin; first compound 0.007906 µM
  relative viability: 0.643
Trametinib + Phenformin; first compound 0.025 µM
  relative viability: 0.441
Trametinib + Phenformin; first compound 0.07906 µM
  relative viability: 0.331
Trametinib + Phenformin; first compound 0.25 µM
  relative viability: 0.209
[1]; 0.02 µM
  relative viability: 0.992
[1]; 0.06325 µM
  relative viability: 1.03
[1]; 0.2 µM
  relative viability: 0.805
[1]; 0.6325 µM
  relative viability: 1.02
[1]; 2 µM
  relative viability: 0.938
Trametinib; 0.0025 µM
  relative viability: 1
Trametinib; 0.007906 µM
  relative viability: 0.943
Trametinib; 0.02 µM, anchor plate
  relative viability: 0.4
Trametinib; 0.025 µM
  relative viability: 0.778
Trametinib; 0.07906 µM
  relative viability: 0.444
Trametinib; 0.25 µM
  relative viability: 0.209
